ChEMBL document CHEMBL1914304 (J Med Chem, 2011)

Tests used:
[1] = system: HepG2; test: Cytotoxicity against human HepG2 cells after 72 hrs by luminescence assay; format: cell-based; conditions: hepg2, 72 h
[2] = system: HEK293; test: Cytotoxicity against human HEK293 cells after 72 hrs by luminescence assay; format: cell-based; conditions: hek293, 72 h
[3] = Selectivity ratio of EC50 for human HepG2 cells to EC50 for Plasmodium falciparum
[4] = system: BJ; test: Cytotoxicity against human BJ cells after 72 hrs by luminescence assay; format: cell-based
[5] = system: Raji; test: Cytotoxicity against human Raji cells after 72 hrs by luminescence assay; format: cell-based

Structure (SMILES)	Activity [1]	Activity [2]	selectivity ratio [3]	Activity [4]	Activity [5]
Cc1cccc(N(CC(O)COc2ccccc2C(=O)CCc2ccccc2)c2ccccc2)c1.Cl (racemic)	Non-toxic	Non-toxic	> 10	Non-toxic	Non-toxic
CN(CCc1ccccc1)CC(O)COc1ccccc1C(=O)CCc1ccccc1.Cl (racemic)	Non-toxic	Non-toxic	> 10	Non-toxic	Non-toxic
CCN(CC)CC(O)COc1ccccc1C(=O)CCc1ccccc1.Cl (racemic)	Non-toxic	Non-toxic	> 10	Non-toxic	Non-toxic
CCCN(CCC)CC(O)COc1ccccc1C(=O)CCc1ccccc1.Cl (racemic)	Non-toxic	Non-toxic	> 10	Non-toxic	Non-toxic
CCCCN(CCCC)CC(O)COc1ccccc1C(=O)CCc1ccccc1.Cl (racemic)	Non-toxic	Non-toxic	> 10	Non-toxic	Non-toxic
CC(C)N(CC(O)COc1ccccc1C(=O)CCc1ccccc1)c1ccccc1.Cl (racemic)	Non-toxic	Non-toxic	> 10	Non-toxic	Non-toxic
Cl.O=C(CCc1ccccc1)c1ccccc1OCC(O)CN(C1CCCCC1)C1CCCCC1 (racemic)	Non-toxic	Non-toxic	> 10	Non-toxic	Non-toxic
Cl.O=C(CCc1ccc(F)cc1)c1ccccc1OCC(O)CNCc1ccccc1 (racemic)	Non-toxic	Non-toxic	> 10	Non-toxic	Non-toxic
Cl.O=C(CCc1ccc(F)cc1)c1ccccc1OCC(O)CN(Cc1ccccc1)c1ccccc1 (racemic)	Non-toxic	Non-toxic	> 10	Non-toxic	Non-toxic
COc1cccc(N(CC(O)COc2ccccc2C(=O)CCc2ccc(F)cc2)c2ccccc2)c1.Cl (racemic)	Non-toxic	Non-toxic	> 10	Non-toxic	Non-toxic
CN(CCc1ccccc1)CC(O)COc1ccccc1C(=O)CCc1ccc(F)cc1.Cl (racemic)	Non-toxic	Non-toxic	> 10	Non-toxic	Non-toxic
CCN(CC)CC(O)COc1ccccc1C(=O)CCc1ccc(F)cc1.Cl (racemic)	Non-toxic	Non-toxic	> 10	Non-toxic	Non-toxic
CCCN(CCC)CC(O)COc1ccccc1C(=O)CCc1ccc(F)cc1.Cl (racemic)	Non-toxic	Non-toxic	> 10	Non-toxic	Non-toxic
CCCCN(CCCC)CC(O)COc1ccccc1C(=O)CCc1ccc(F)cc1.Cl (racemic)	Non-toxic	Non-toxic	> 10	Non-toxic	Non-toxic
CC(C)N(CC(O)COc1ccccc1C(=O)CCc1ccc(F)cc1)c1ccccc1.Cl (racemic)	Non-toxic	Non-toxic	> 10	Non-toxic	Non-toxic
Cl.O=C(CCc1ccc(F)cc1)c1ccccc1OCC(O)CN(C1CCCCC1)C1CCCCC1 (racemic)	Non-toxic	Non-toxic	> 10	Non-toxic	Non-toxic
Cl.O=C(CCc1ccccc1)c1cc(F)ccc1OCC(O)CNCc1ccccc1 (racemic)	Non-toxic	Non-toxic	> 10	Non-toxic	Non-toxic
Cl.O=C(CCc1ccccc1)c1cc(F)ccc1OCC(O)CN(Cc1ccccc1)c1ccccc1 (racemic)	Non-toxic	Non-toxic	> 10	Non-toxic	Non-toxic
Cc1cccc(N(CC(O)COc2ccc(F)cc2C(=O)CCc2ccccc2)c2ccccc2)c1.Cl (racemic)	Non-toxic	Non-toxic	> 10	Non-toxic	Non-toxic
COc1cccc(N(CC(O)COc2ccc(F)cc2C(=O)CCc2ccccc2)c2ccccc2)c1.Cl (racemic)	Non-toxic	Non-toxic	> 10	Non-toxic	Non-toxic
CN(CCc1ccccc1)CC(O)COc1ccc(F)cc1C(=O)CCc1ccccc1.Cl (racemic)	Non-toxic	Non-toxic	> 10	Non-toxic	Non-toxic
CCN(CC)CC(O)COc1ccc(F)cc1C(=O)CCc1ccccc1.Cl (racemic)	Non-toxic	Non-toxic	> 10	Non-toxic	Non-toxic
CCCN(CCC)CC(O)COc1ccc(F)cc1C(=O)CCc1ccccc1.Cl (racemic)	Non-toxic	Non-toxic	> 10	Non-toxic	Non-toxic
CCCCN(CCCC)CC(O)COc1ccc(F)cc1C(=O)CCc1ccccc1.Cl (racemic)	Non-toxic	Non-toxic	> 10	Non-toxic	Non-toxic
Cl.O=C(CCc1ccccc1)c1cc(F)ccc1OCC(O)CN(C1CCCCC1)C1CCCCC1 (racemic)	Non-toxic	Non-toxic	> 10	Non-toxic	Non-toxic
Cl.O=C(CCc1ccc(F)cc1)c1cc(F)ccc1OCC(O)CNCc1ccccc1 (racemic)	Non-toxic	Non-toxic	> 10	Non-toxic	Non-toxic
Cl.O=C(CCc1ccc(F)cc1)c1cc(F)ccc1OCC(O)CN(Cc1ccccc1)c1ccccc1 (racemic)	Non-toxic	Non-toxic	> 10	Non-toxic	Non-toxic
Cc1cccc(N(CC(O)COc2ccc(F)cc2C(=O)CCc2ccc(F)cc2)c2ccccc2)c1.Cl (racemic)	Non-toxic	Non-toxic	> 10	Non-toxic	Non-toxic
